The values that follow come from patent US11366114B2, “Genetically encoded fluorescent sensors for detecting ligand bias and intracellular signaling through cAMP pathways” (MONTANA MOLECULAR LLC, priority 2013, dated 2022).

One assay has as its system cAMP. The assay can be described thus: Fluorescence response of cAMP sensors to isoproterenol in HEK 293 cells co-expressing the beta adrenergic receptor. The assay is classed as cell-based, human. Particulars: for Relative Change in Fluorescence: in response to isoproternol; for dF/F: relative fluorescence response to isoproternol. Here is the method:
To test the functionality of these 28 prototype sensors, each construct was co-expressed with the beta adrenergic receptor, which couples to the Gs signaling pathway when activated by isoproteronol, in HEK 293 cells, and the fluorescence measured as described below. Briefly, 96-well glass-bottom plates were coated with Poly-D-Lysine (Fisher Scientific, Pittsburgh, Pa.) and HEK 293 were seeded and cultured in EMEM (ATCC, Manassas, Va.) supplemented with 10% fetal bovine serum and Penicillin-Streptomycin at 37 […] and 30 ng of beta adrenergic receptor per well, using Lipofectamine 2000 Transfection Reagent (Life Technologies, Grand Island, N.Y.) according to the manufacturer's protocol, and incubated for 24-48 hours at 37° C. in 5% CO2.
Prior to screening transfected cells for fluorescence, he EMEM culture medium was removed and 1×DPBS added to each well. A Zeiss Axiovert S100TV inverted microscope equipped with computer controlled excitation/emission filter wheels, shutters, and a Qimaging Retiga Exi CCD camera (Surrey, BC Canada) was used to image cells at 25e A) supplemented with 10% fetal bovine serum and Penicillin-Streptomycin at 37hn filters were used to resolve the green fluorescence from the cAMP sensors. Cells were analyzed for increases or decreases in fluorescence intensity upon addition of isoproternol, DMSO, forskolin and IBMX. To analyze the image stacks, background fluorescence was defined as a region of the image that contained no cells. The average value of this region was subtracted frame by frame from the measurements of the mean pixel values of the fluorescent cells. Fluorescence intensity data was plotted and analyzed with IGOR (Wavemetrics, Oswego, Oreg.).
For transient expression and screening in an automated fluorescence plate reader, HEK 293T cells were cultured in Corning Co-Star Polystyrene 96-well plates coated with Poly-D-Lysine. HEK293T cells were plated at 35,000 cells/well in 100 μl growth medium per well without antibiotics so that the cells would be 90-95% confluent at the time of transfection (approximately 24 hours later). For each transfection (i.e. one well in a 96-well plate), 160 ng of plasmid DNA (120 ng sensor+40 ng receptor) was diluted in […] and then the mixture was replaced with fresh medium. Prior to scanning a plate on the Biotek Synergy Mx, EMEM culture medium was replaced with 250 μl of 1×DPBS per well. Plates were read at 25° C., using monochromators set to 488/20 nm excitation and 530/20 nm emission to resolve the green fluorescence from the cAMP sensor.

Assay [1] addresses T1, G-protein coupled calcitonin receptor (Homo sapiens, UniProt P30988).
T1 sequence (P30988 25-474): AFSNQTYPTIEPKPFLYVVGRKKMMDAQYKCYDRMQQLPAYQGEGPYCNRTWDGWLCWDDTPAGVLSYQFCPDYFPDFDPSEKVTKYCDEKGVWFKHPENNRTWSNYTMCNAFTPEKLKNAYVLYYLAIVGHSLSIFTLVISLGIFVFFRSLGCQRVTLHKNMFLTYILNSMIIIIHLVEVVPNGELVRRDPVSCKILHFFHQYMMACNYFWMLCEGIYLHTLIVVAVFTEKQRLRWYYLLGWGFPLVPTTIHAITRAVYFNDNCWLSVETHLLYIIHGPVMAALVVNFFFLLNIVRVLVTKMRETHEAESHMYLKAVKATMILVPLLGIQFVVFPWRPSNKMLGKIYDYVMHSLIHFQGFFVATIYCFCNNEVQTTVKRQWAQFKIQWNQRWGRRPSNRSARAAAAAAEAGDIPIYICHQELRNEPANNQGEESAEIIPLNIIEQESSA
The assay can be described thus: Multiplexing of cAMP sensor with DAG sensor, calcitonin response curves. It counts as cell-based. The text has this: FIG. 6 Multiplexing of a cAMP biosensor based on a single fluorescent protein with a second biosensor of a different color. The G-protein coupled calcitonin receptor was stimulated with different amounts of calcitonin (shown on the X axis) to produce response curves for a red cAMP and a green DAG sensor. The Y axis on the right indicates cAMP response. The Y axis on the left indicates DAG response.
The ability of cAMP sensor proteins of the present invention to be multiplexed with other fluorescence based sensors was tested. Briefly, cells were co-transfected with expression vector expressing a cAMP sensor protein of the present invention comprising a green fluorescent protein, and a DAG biosensor comprising a red fluorescent protein. The cells were cultured, treated with isoptroterenol and the resulting fluorescence measured as described in Example 1A. The results of this study are show in FIG. 6.

[2] abbreviates: HEK 293 cells, beta adrenergic receptor co-expressed.

“EcpG22: prototype cAMP sensor, cpEGFP in Epac2 at V341; SEQID 31 in Table 1, SEQ ID NO: 32 in Table 3”: the “Relative Change in Fluorescence” value with cAMP is reported as −14%. Moreover, in the assay on cAMP (only cell of the column printed with %), the dF/F is −14%. Consider “EcpG10: prototype cAMP sensor, cpEGFP in Epac2 at R458; SEQID 25 in Table 1, SEQ ID NO: 26 in Table 3”, for which the “Relative Change in Fluorescence” value in the assay on cAMP is on record as −30%. Moreover, in the assay on cAMP (setting [2]), the dF/F is listed as −30.

For calcitonin, the “G-protein pathways stimulated (cAMP sensor / DAG sensor)” value in assay [1] (higher concentrations) is recorded as “two different G-protein pathways have been activated”; in assay [1] (low concentrations), “can stimulate just one G-protein pathway”. For “EcpG9: prototype cAMP sensor, cpEGFP in Epac2 at L457; SEQID 30 in Table 1, SEQ ID NO: 31 in Table 3”, the “Relative Change in Fluorescence” value in the assay on cAMP is 13%. Moreover, the dF/F in the assay on cAMP (setting [2]) was 13. Regarding “EcpG12: prototype cAMP sensor, cpEGFP in Epac2 at V460; SEQID 11 in Table 1, SEQ ID NO: 12 in Table 3”, the “Relative Change in Fluorescence” value in the assay on cAMP is recorded as −36%. In addition, in the assay on cAMP (setting [2]), the dF/F is given as −36. The matching figures for “EcpG18: prototype cAMP sensor, cpEGFP in Epac2 at A486; SEQID 32 in Table 1, SEQ ID NO: 33 in Table 3”: 12% and 12. The like results for “EcpG13: prototype cAMP sensor, cpEGFP in Epac2 at E461; SEQID 28 in Table 1, SEQ ID NO: 29 in Table 3” were, in that order, −22% and −22. As to “EPAC2gfpRAP1B: cpEGFP tethered between Epac2 and Rap1B; SEQID 27 in Table 1, SEQ ID NO: 28 in Table 3”, the “Relative Change in Fluorescence” value in the assay on cAMP came out at 26%. On to “EcpG24: prototype cAMP sensor, cpEGFP in Epac2 at A520; SEQID 33 in Table 1, SEQ ID NO: 34 in Table 3”, for which the “Relative Change in Fluorescence” value in the assay with cAMP is on record as −11%. The dF/F with cAMP (setting [2]) was −11. On to “EcpG15: prototype cAMP sensor, cpEGFP in Epac2 at N463; SEQID 17 in Table 1, SEQ ID NO: 18 in Table 3”, for which, in the assay on cAMP, the “Relative Change in Fluorescence” value is 34%. For the same substance, the dF/F in the assay with cAMP (setting [2]) was 34.

On to “EcpG23: prototype cAMP sensor, cpEGFP in Epac2 at L518; SEQID 29 in Table 1, SEQ ID NO: 30 in Table 3”, for which, in the assay on cAMP, the “Relative Change in Fluorescence” value is on record as −16%. The dF/F in the assay on cAMP (setting [2]) is recorded as −16.
